Key:
[1] = target: 5-hydroxytryptamine receptor 2A (Homo sapiens, UniProt P28223); experiment: Binding affinity to human 5HT2A receptor
[2] = target: T1, 5-hydroxytryptamine receptor 1A (Homo sapiens, UniProt P08908); experiment: Binding affinity to human 5HT1A receptor expressed in HeLa cells by scintillation proximity assay; format: cell-based
T1 sequence (P08908 whole entry): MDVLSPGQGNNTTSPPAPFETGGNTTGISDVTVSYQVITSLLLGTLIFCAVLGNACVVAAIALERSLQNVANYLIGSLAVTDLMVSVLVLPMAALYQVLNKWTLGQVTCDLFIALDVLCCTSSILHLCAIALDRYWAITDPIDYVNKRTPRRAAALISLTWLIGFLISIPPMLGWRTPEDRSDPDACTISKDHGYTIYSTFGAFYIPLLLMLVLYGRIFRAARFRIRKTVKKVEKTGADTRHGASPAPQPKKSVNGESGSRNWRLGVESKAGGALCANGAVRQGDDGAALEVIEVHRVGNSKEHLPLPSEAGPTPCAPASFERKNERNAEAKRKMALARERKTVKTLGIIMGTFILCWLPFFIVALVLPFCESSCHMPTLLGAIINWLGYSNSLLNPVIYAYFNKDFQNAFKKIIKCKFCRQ

[3] = target: T2, 5-hydroxytryptamine receptor 1A (Homo sapiens) (UniProt P08908); experiment: Intrinsic activity at human […] 5HT1A receptor expressed in HeLa cells by [3H]-thymidine uptake assay; format: cell-based
T2 sequence (whole entry): T1 sequence (P08908 whole entry)

[4] = test system: Mus musculus; experiment: In vivo intrinsic activity at D2 receptor in mouse brain assessed as inhibition of gamma-butyrolactone-induced increase in DOPA synthesis at 30 mg/kg, po administered 60 mins before gamma-butyrolactone challenge measured after 30 mins; format: functional
[5] = target: T3, Sodium-dependent serotonin transporter (Homo sapiens, UniProt P31645); experiment: Displacement of [3H]-citalopram from human serotonin transporter expressed in HEK 293 cells; format: cell-based, HEK293
T3 sequence (P31645 whole entry): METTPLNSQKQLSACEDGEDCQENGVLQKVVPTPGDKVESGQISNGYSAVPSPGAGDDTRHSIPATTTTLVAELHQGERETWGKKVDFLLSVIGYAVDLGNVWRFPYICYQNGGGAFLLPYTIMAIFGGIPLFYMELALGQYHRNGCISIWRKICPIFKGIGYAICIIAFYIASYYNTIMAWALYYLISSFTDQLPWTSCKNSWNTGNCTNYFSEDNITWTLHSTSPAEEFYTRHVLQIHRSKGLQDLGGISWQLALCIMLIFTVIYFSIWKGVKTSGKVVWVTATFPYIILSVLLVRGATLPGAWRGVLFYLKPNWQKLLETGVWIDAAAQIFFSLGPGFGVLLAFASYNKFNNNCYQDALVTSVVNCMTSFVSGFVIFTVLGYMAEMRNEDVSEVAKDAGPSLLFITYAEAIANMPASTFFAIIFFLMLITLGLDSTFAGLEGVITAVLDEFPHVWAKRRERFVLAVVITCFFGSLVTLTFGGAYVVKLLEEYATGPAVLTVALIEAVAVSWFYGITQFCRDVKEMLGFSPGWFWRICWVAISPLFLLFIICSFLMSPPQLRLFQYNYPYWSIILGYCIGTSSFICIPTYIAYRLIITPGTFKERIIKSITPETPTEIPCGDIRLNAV

[6] = target: T3, Sodium-dependent serotonin transporter; experiment: Displacement of [3H]-citalopram from human serotonin transporter expressed in HEK 293 cells by scintillation proximity assay; format: cell-based, HEK293
[7] = test system: Mus musculus; experiment: Antipsychotic activity in po dosed mouse assessed as inhibition of spontaneous locomotor activity; format: functional; settings: for minimal effective dose: read-out: MED
[8] = Apparent intrinsic clearance in human liver microsomes; format: ADME, Microsome
[9] = test system: Rattus norvegicus; experiment: Ex vivo D2 receptor occupancy in po dosed rat striatum assessed as inhibition [3H]-raclopride binding at 47 ng/ml plasma concentration; format: functional; parameters: scale not given: the % may be the effect or the level left
[10] = test system: Rattus norvegicus; experiment: Ex vivo D2 receptor occupancy in po dosed rat striatum assessed as inhibition [3H]-raclopride binding at 188 ng/ml plasma concentration; format: functional; parameters: scale not given: the % may be the effect or the level left
[11] = Ratio of drug level in brain to plasma in po dosed rat; format: ADME, organism-based; settings: read-out: BPR
[12] = test system: Rattus norvegicus; experiment: Ex vivo D2 receptor occupancy in rat striatum assessed as inhibition [3H]-raclopride binding at 1 mg/kg, po; format: functional; parameters: scale not given: the % may be the effect or the level left
[13] = target: Voltage-gated inwardly rectifying potassium channel KCNH2 (Homo sapiens, UniProt Q12809)
Voltage-gated inwardly rectifying potassium channel KCNH2, sequence (Q12809 whole entry): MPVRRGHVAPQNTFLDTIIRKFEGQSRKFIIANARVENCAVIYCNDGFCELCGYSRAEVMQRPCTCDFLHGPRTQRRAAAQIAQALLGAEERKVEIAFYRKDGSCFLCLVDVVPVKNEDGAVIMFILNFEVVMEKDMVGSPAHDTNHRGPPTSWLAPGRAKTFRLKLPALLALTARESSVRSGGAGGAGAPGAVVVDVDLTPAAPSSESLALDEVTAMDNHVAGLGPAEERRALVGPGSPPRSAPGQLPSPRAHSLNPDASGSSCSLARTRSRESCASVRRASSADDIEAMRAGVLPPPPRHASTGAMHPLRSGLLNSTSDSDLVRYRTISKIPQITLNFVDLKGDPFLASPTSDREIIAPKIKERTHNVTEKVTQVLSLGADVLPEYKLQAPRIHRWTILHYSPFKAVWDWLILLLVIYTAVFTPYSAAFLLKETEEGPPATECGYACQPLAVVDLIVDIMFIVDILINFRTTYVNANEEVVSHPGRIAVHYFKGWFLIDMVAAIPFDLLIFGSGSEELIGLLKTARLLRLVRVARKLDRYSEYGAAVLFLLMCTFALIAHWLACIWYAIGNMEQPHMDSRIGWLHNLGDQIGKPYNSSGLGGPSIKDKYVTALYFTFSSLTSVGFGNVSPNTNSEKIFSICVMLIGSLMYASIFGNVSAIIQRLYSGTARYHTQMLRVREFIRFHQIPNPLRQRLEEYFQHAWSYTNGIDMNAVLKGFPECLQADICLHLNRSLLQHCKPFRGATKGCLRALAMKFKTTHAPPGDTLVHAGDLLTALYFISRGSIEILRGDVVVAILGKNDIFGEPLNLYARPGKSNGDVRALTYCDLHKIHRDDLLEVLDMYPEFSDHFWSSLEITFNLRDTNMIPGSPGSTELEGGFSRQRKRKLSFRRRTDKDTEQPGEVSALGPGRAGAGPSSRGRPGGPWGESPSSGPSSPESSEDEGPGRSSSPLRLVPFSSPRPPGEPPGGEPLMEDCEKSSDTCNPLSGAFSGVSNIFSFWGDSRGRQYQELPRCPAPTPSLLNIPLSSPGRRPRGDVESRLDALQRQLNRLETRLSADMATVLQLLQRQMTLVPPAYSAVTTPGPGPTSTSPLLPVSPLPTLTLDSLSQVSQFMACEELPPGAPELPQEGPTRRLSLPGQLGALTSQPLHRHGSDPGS
Description: Displacement of [3H]dofetilide from human ERG

[14] = target: T1, 5-hydroxytryptamine receptor 1A; experiment: biochemical
Description: Displacement of [3H]-8-OH-DPAT from human 5HT1A receptor expressed in HeLa cells

[15] = test system: Mus musculus; experiment: Induction of catalepsy in mouse at 10 mg/kg, po; format: organism-based; parameters: dose 10 mg/kg, route oral; settings: in vivo
[16] = test system: Mus musculus; experiment: Induction of catalepsy in mouse at 30 mg/kg, po; format: organism-based; parameters: dose 30 mg/kg, route oral; settings: in vivo
[17] = test system: Rattus norvegicus; experiment: Ex vivo D2 receptor occupancy in po dosed rat striatum assessed as inhibition [3H]-raclopride binding at 82 ng/ml plasma concentration; format: functional; parameters: scale not given: the % may be the effect or the level left
[18] = test system: Rattus norvegicus; experiment: Ex vivo D2 receptor occupancy in po dosed rat striatum assessed as inhibition [3H]-raclopride binding at 243 ng/ml plasma concentration; format: functional; parameters: scale not given: the % may be the effect or the level left
[19] = test system: Rattus norvegicus; experiment: Ex vivo D2 receptor occupancy in rat striatum assessed as inhibition [3H]-raclopride binding at 30 mg/kg, po; format: functional; parameters: scale not given: the % may be the effect or the level left

5-hydroxytryptamine receptor 2A, sequence (P28223 whole entry): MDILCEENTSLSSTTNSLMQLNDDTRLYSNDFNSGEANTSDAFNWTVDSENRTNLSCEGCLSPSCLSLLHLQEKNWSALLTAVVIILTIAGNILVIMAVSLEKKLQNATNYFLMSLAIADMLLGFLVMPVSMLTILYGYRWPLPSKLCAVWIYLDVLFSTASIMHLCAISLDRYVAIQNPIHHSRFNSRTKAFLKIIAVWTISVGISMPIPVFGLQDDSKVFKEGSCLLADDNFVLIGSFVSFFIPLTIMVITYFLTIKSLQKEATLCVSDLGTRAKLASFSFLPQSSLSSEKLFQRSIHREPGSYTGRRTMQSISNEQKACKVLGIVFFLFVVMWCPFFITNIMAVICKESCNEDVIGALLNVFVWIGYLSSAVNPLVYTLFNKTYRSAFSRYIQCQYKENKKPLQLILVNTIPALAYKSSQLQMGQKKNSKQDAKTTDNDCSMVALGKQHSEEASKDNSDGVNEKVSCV

| SMILES | Ki [1] [nM] | Ki [2] [nM] | Intrinsic activity [3] [%] | Intrinsic activity [4] [%] | Ki [5] [nM] | Ki [6] [nM] | Activity [7] | minimal effective dose [7] [mg/kg] | CLint scaled [8] [mL/min/kg] | Activity [9] [%] | Activity [10] [%] | Kp [11] | Activity [12] [%] | Ki [13] [nM] | Ki [14] [nM] | Activity [15] | Activity [16] | Activity [17] [%] | Activity [18] [%] | Activity [19] [%] |
| --- | --- | --- | --- | --- | --- | --- | --- | --- | --- | --- | --- | --- | --- | --- | --- | --- | --- | --- | --- | --- |
| O=C1NCc2ccc(OCCCCN3CCN(c4cccc5ccccc45)CC3)cc21 | 4.95 | 2.22 | 66.7 | 43 | 16.5 | 445 | Dose-dependent effect | 1 | 23.7 | 80 | 94 | 2.49 | 55 | 1850 | 0.151 |  |  |  |  |  |
| O=C1NCc2ccc(OCCCCN3CCN(c4cccc5cccc(F)c45)CC3)cc21 | 1.83 | 0.951 |  | 60 | 26 |  | Dose-dependent effect | 1 |  |  |  | 1.81 | 53 | 2060 | 0.0504 | Non-toxic | Non-toxic | 78.5 | 92.3 | 99 |

— ChEMBL document CHEMBL1255556, “6-Alkoxyisoindolin-1-one based dopamine D2 partial agonists as potential antipsychotics” (Bioorg Med Chem Lett, 2010)
